# Test results: ChEMBL document CHEMBL5038618, “Discovery of PT-65 as a highly potent and selective Proteolysis-targeting chimera degrader of GSK3 for treating Alzheimer's disease” (Eur J Med Chem, 2021)
# The source made the active and inactive calls. The calls are words filed in the database; no cut-off is given here.
# Columns and labels:
# [1] = system: SH-SY5Y; experiment: Downregulation of GSK3alpha expression in human SH-SY5Y cells at 62.5 to 500 nM pretreated for 2 hrs followed by Abeta42 coincubation for 72 hrs by Westernblot analysis; assay type: functional, cell-based; conditions: dose 62.5-500 nM, time 74.0 hrs
# [2] = system: SH-SY5Y; experiment: Cytotoxicity against human SH-SY5Y cells assessed as cell viability upto 100 uM measured after 72 hrs by CCK8 assay; assay type: functional, cell-based; conditions: dose microM <=100, time 72.0 hrs
# [3] = system: Rattus norvegicus; experiment: Improvement in learning and spatial memory in okadaic acid induced Sprague-Dawley rat assessed as increase in time spent in target quadrant at 200 to 600 uM, iv measured after 6 days by Morris water maze test; assay type: functional, organism-based; conditions: dose 200-600 µM, time 6.0 day
# [4] = system: SH-SY5Y; experiment: Effect on tau protein expression in human SH-SY5Y cells assessed as reduction on phosphorylated tau threonine205 residue level at 62.5 to 500 nM pretreated for 2 hrs followed by Abeta42 coincubation for 72 hrs by Westernblot analysis; assay type: functional, cell-based; conditions: dose 62.5-500 nM, time 74.0 hrs
# [5] = system: SH-SY5Y; experiment: Effect on tau protein expression in human SH-SY5Y cells assessed as reduction on phosphorylated tau Ser396 residue level at 62.5 to 500 nM pretreated for 2 hrs followed by Abeta42 coincubation for 72 hrs by Westernblot analysis; assay type: functional, cell-based; conditions: dose 62.5-500 nM, time 74.0 hrs
# [6] = target: T1, Protein cereblon/Glycogen synthase kinase-3 beta (Homo sapiens, UniProt P49841+Q96SW2); experiment: Protac activity at CRBN/GSK3beta in human SH-SY5Y cells assessed as GSK3beta degradation at 1 uM pretreated with pomalidomide for 2 hrs followed by compound addition and measured after 24 hrs; assay type: cell-based
# Target sequence in this assay (P49841 whole entry, looked up): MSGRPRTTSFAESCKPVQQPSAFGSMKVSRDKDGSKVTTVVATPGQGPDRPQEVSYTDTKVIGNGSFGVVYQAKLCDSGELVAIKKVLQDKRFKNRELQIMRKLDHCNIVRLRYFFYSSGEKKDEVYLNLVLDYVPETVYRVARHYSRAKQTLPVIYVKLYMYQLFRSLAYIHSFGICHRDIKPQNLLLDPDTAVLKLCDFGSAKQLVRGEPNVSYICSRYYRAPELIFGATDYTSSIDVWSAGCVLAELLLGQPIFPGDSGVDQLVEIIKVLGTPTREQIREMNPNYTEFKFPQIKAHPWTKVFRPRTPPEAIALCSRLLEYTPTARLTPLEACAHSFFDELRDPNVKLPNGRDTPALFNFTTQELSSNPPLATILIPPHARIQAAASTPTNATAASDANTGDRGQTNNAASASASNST
# Target sequence in this assay (Q96SW2 whole entry, looked up): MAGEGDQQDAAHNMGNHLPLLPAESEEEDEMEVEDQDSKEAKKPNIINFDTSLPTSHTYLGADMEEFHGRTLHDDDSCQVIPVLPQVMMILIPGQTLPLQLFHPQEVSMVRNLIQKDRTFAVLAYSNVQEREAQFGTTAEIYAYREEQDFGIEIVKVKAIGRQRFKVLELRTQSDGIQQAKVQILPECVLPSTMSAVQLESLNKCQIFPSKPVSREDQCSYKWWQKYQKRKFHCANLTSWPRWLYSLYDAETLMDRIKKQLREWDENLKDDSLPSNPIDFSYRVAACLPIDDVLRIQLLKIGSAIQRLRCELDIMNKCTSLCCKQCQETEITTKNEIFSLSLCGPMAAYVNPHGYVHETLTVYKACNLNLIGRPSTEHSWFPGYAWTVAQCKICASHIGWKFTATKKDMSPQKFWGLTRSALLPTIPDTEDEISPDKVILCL
# [7] = target: T1, Protein cereblon/Glycogen synthase kinase-3 beta; experiment: Protac activity at CRBN/GSK3beta in human SH-SY5Y cells assessed as induction of GSK3beta degradation measured after 24 hrs; assay type: cell-based
# Target sequence in this assay (P49841 whole entry): as the sequence (P49841 whole entry, looked up) above
# Target sequence in this assay (Q96SW2 whole entry): as the sequence (Q96SW2 whole entry, looked up) above
# [8] = target: Glycogen synthase kinase-3 alpha (Homo sapiens) (UniProt P49840); experiment: Induction of GSK3alpha degradation in human SH-SY5Y cells assessed as recovery of GSK3alpha protein pretreated for 12 hrs followed by compound washout and measured upto 36 hrs by western blot assay; assay type: cell-based; conditions: time 48.0 hrs
# [9] = system: SH-SY5Y; experiment: Induction of GSK3beta degradation in human SH-SY5Y cells assessed as recovery of GSK3beta protein pretreated for 12 hrs followed by compound washout and measured upto 36 hrs by western blot assay; assay type: cell-based; conditions: time 48.0 hrs
# [10] = target: T1, Protein cereblon/Glycogen synthase kinase-3 beta; experiment: Protac activity at CRBN/GSK3beta in human SH-SY5Y cells assessed as GSK3beta degradation at 1 uM pretreated with MG-132 for 2 hrs followed by compound addition and measured after 24 hrs; assay type: cell-based
# Target sequence in this assay (P49841 whole entry, looked up): as the sequence (P49841 whole entry, looked up) above
# Target sequence in this assay (Q96SW2 whole entry, looked up): as the sequence (Q96SW2 whole entry, looked up) above
# [11] = system: SH-SY5Y; experiment: Induction of apoptosis in human SH-SY5Y cells assessed as live cells at 125 nM preincubated for 2 hrs followed by coincubation with Abeta42 and measured after 72 hrs by Annexin V-FITC/propidium iodide staining based flow cytometry (Rvb=94.8%); assay type: functional; conditions: time 74 hrs
# [12] = target: T1, Protein cereblon/Glycogen synthase kinase-3 beta; experiment: Protac activity at CRBN/GSK3beta in human SH-SY5Y cells assessed as induction of GSK3beta degradation at 0.1 uM measured after 24 hrs; assay type: cell-based
# Target sequence in this assay (P49841 whole entry, looked up): as the sequence (P49841 whole entry, looked up) above
# Target sequence in this assay (Q96SW2 whole entry, looked up): as the sequence (Q96SW2 whole entry, looked up) above
# [13] = system: Rattus norvegicus; experiment: Antialzheimer activity against hippocampal tissue of okadaic acid induced Sprague-Dawley rat assessed as reduction on GSK3alpha protein level at 200 to 600 uM, iv by western blot assay; assay type: functional, organism-based; conditions: Hippocampus, dose 200-600 µM
# [14] = system: Rattus norvegicus; experiment: Antialzheimer activity against hippocampal tissue of okadaic acid induced Sprague-Dawley rat assessed as reduction on tau protein level at 200 to 600 uM, iv by western blot assay; assay type: functional, organism-based; conditions: Hippocampus, dose 200-600 µM
# [15] = system: Rattus norvegicus; experiment: Antialzheimer activity against hippocampal tissue of okadaic acid induced Sprague-Dawley rat assessed as reduction on GSK3alpha protein level at 200 to 600 uM, iv by immunohistochemical staining based analysis; assay type: functional, organism-based; conditions: Hippocampus, dose 200-600 µM
# [16] = target: Glycogen synthase kinase-3 beta (Homo sapiens, UniProt P49841); conditions: dose microM <=0.00975
# Glycogen synthase kinase-3 beta, sequence (P49841 whole entry, looked up): as the sequence (P49841 whole entry, looked up) above
# Description: Binding affinity to recombinant GSK3beta (unknown origin) assessed as association rate constant upto 0.00975 uM by SPR analysis
# Glycogen synthase kinase-3 alpha (Homo sapiens), sequence (P49840 2-483 limits assumed): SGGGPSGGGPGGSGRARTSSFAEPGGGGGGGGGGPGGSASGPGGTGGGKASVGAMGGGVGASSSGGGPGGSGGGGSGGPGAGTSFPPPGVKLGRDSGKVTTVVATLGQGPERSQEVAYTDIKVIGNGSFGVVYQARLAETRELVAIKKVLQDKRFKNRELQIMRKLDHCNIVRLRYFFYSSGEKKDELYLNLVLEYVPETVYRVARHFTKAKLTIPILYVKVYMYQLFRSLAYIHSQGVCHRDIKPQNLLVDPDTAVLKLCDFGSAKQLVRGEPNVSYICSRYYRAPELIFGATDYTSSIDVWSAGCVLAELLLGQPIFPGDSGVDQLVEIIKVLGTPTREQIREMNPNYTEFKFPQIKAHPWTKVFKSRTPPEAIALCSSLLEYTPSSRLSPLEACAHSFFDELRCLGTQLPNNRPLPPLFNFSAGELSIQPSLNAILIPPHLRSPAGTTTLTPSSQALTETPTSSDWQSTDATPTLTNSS
structure (smiles),measurement,setting,value
Nc1ncc(-c2ccc(S(=O)(=O)N3CCN(CCCCc4cn(CCOCCOCCOCCOCCOCCNc5cccc6c5C(=O)N(C5CCC(=O)NC5=O)C6=O)nn4)CC3)cc2)nc1C(=O)Nc1cccnc1 (stereo unspecified),Activity,[1],Dose-Dependent Effect
same,Activity,[2],inactive
same,Activity,[3],Active
same,Activity,[4],Dose-Dependent Effect
same,Activity,[5],Dose-Dependent Effect
same,Activity,[6],inactive
same,DC50,[7],34.2 nM
same,Activity,[8],Active
same,Activity,[9],Active
same,Activity,[10],inactive
same,Activity,[11],83%
same,Activity,[12],67.1%
same,Activity,[13],Active
same,Activity,[14],Active
same,Activity,[15],Active
same,Ka,[16],2.04 10^6/Ms
